Assay results taken from the supplement of paper PMC5908809.

Legend:
SNK-6 (IL-2 2.5 ng/mL) [1] = assay: percent inhibition of viability; higher = more inhibition; conditions: 72 h
KHYG-1 (IL-2 2.5 ng/mL) [2] = assay: as above; conditions: 72 h
[3] = tested on: normal primary NK cells, pool 3 (3 donors) (IL-2 2.5 ng/mL); assay: as above; conditions: 72 h
IMC-1 (IL-2 20 ng/mL) [4] = assay: as above; conditions: 72 h
NK-92 (IL-2 2.5 ng/mL) [5] = assay: as above; conditions: 72 h
[6] = tested on: normal primary NK cells, pool 1 (3 donors) (IL-2 2.5 ng/mL); assay: as above; conditions: 72 h
NKL (IL-2 2.5 ng/mL) [7] = assay: as above; conditions: 72 h
[8] = tested on: normal primary NK cells, pool 1 (3 donors), resting (IL-2 0 ng/mL); assay: as above; conditions: 72 h
KAI3 (IL-2 2.5 ng/mL) [9] = assay: as above; conditions: 72 h
NK-YS (IL-2 2.5 ng/mL) [10] = assay: as above; conditions: 72 h
DERL-7 (IL-2 2.5 ng/mL) [11] = assay: as above; conditions: 72 h
[12] = tested on: normal primary NK cells, pool 2 (3 donors) (IL-2 2.5 ng/mL); assay: as above; conditions: 72 h
YT (IL-2 2.5 ng/mL) [13] = assay: as above; conditions: 72 h
[14] = tested on: normal NK cells expanded with K562-aAPC; assay: as above; conditions: 72 h, IL-2 2.5 ng/mL
Method: (§1)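 Drug sensitivity and resistance testing on K562-aAPC-expanded normal NK cells: 5 concentrations (10-fold steps over a 10,000-fold range), 72 h at 37 °C, viability by CellTiter-Glo normalised to DMSO and benzethonium chloride controls; DSS from the fitted curve.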

[15] = tested on: normal NK cells expanded with K562-aAPC; assay: drug sensitivity score (DSS) (DSS units); higher = more sensitive; extreme values may be limits of the assay; conditions: 72 h; IL-2 2.5 ng/mL
Method: as §1

SNK-6 (IL-2 2.5 ng/mL) [16] = assay: as above; conditions: 72 h
KHYG-1 (IL-2 2.5 ng/mL) [17] = assay: as above; conditions: 72 h
[18] = tested on: normal primary NK cells, pool 3 (3 donors) (IL-2 2.5 ng/mL); assay: as above; conditions: 72 h
IMC-1 (IL-2 20 ng/mL) [19] = assay: as above; conditions: 72 h
NK-92 (IL-2 2.5 ng/mL) [20] = assay: as above; conditions: 72 h
[21] = tested on: normal primary NK cells, pool 1 (3 donors) (IL-2 2.5 ng/mL); assay: as above; conditions: 72 h
NKL (IL-2 2.5 ng/mL) [22] = assay: as above; conditions: 72 h
[23] = tested on: normal primary NK cells, pool 1 (3 donors), resting (IL-2 0 ng/mL); assay: as above; conditions: 72 h
KAI3 (IL-2 2.5 ng/mL) [24] = assay: as above; conditions: 72 h
NK-YS (IL-2 2.5 ng/mL) [25] = assay: as above; conditions: 72 h
DERL-7 (IL-2 2.5 ng/mL) [26] = assay: as above; conditions: 72 h
[27] = tested on: normal primary NK cells, pool 2 (3 donors) (IL-2 2.5 ng/mL); assay: as above; conditions: 72 h
YT (IL-2 2.5 ng/mL) [28] = assay: as above; conditions: 72 h

O=C(NC[C@H](O)CO)c1ccncc1Nc1ccc(I)cc1F [Pimasertib] (max concentration tested 10000 nM)
percent inhibition of viability [%]
Conditions	1 nM	10 nM	100 nM	1000 nM	10000 nM
DERL-7 (IL-2 2.5 ng/mL) [11]	0.5	14.9	29.4	37.8	49.7
IMC-1 (IL-2 20 ng/mL) [4]	-6.58	-3.26	-9.96	-4.58	5.6
KAI3 (IL-2 2.5 ng/mL) [9]	-9.91	7.15	14.8	26.4	27.1
KHYG-1 (IL-2 2.5 ng/mL) [2]	-2.11	9.27	31.9	59.1	61.3
NK-92 (IL-2 2.5 ng/mL) [5]	6.11	-18.6	-12.1	-18.6	-16.4
NK-YS (IL-2 2.5 ng/mL) [10]	-5.36	-3.17	-0.42	15.1	19.9
NKL (IL-2 2.5 ng/mL) [7]	-5.35	10.9	45.4	63.2	66.3
SNK-6 (IL-2 2.5 ng/mL) [1]	-12.2	-4.53	-21	-22.5	-8.46
YT (IL-2 2.5 ng/mL) [13]	0.32	1.92	-0.1	10.8	10.6
[3]	-8.93	-10.8	-10.3	-6.25	5.59
[6]	-8.76	5.99	2.83	15.8	22.1
[8]	10.1	-6.83	-15.1	8.84	24.8
[12]	-12.9	1.34	0.74	1.01	13.2
[14]	0.25	-8.62	0.85	3.75	18

Conditions	drug sensitivity score
DERL-7 (IL-2 2.5 ng/mL) [26]	11.6
IMC-1 (IL-2 20 ng/mL) [19]	0
KAI3 (IL-2 2.5 ng/mL) [24]	5.63
KHYG-1 (IL-2 2.5 ng/mL) [17]	14.8
NK-92 (IL-2 2.5 ng/mL) [20]	0
NK-YS (IL-2 2.5 ng/mL) [25]	2.03
NKL (IL-2 2.5 ng/mL) [22]	18.1
SNK-6 (IL-2 2.5 ng/mL) [16]	0
YT (IL-2 2.5 ng/mL) [28]	0.17
[15]	0.89
[18]	0
[21]	2.21
[23]	2.06
[27]	0.17

CO[C@H](C(=O)[C@@H](O)[C@@H](C)O)[C@@H]1Cc2cc3cc(O[C@H]4C[C@@H](O[C@@H]5C[C@@H](O)[C@H](O)[C@@H](C)O5)[C@H](O)[C@@H](C)O4)c(C)c(O)c3c(O)c2C(=O)[C@H]1O[C@H]1C[C@@H](O[C@@H]2C[C@@H](O)[C@@H](O[C@@H]3C[C@](C)(O)[C@H](O)[C@@H](C)O3)[C@@H](C)O2)[C@H](O)[C@@H](C)O1 [Plicamycin] (max concentration tested 10000 nM)
percent inhibition of viability [%]
Conditions	1 nM	10 nM	100 nM	1000 nM	10000 nM
DERL-7 (IL-2 2.5 ng/mL) [11]	0.06	-2.61	86.8	101	101
IMC-1 (IL-2 20 ng/mL) [4]	-2.17	-0.08	-16.4	69.3	100
KAI3 (IL-2 2.5 ng/mL) [9]	-19.1	-16.3	61.1	93.9	106
KHYG-1 (IL-2 2.5 ng/mL) [2]	-6.39	2.63	87.8	106	110
NK-92 (IL-2 2.5 ng/mL) [5]	-10.9	-13.5	17.8	94.4	108
NK-YS (IL-2 2.5 ng/mL) [10]	-4.88	6.73	97.1	106	108
NKL (IL-2 2.5 ng/mL) [7]	-8.9	-9.19	97.5	108	110
SNK-6 (IL-2 2.5 ng/mL) [1]	6.54	44	92.3	98.5	97.8
YT (IL-2 2.5 ng/mL) [13]	-0.6	0.99	99	109	110
[3]	-7.87	-12.9	5.62	56.1	95.4
[6]	-2.64	-1.48	31	97.5	98.2
[8]	-24.1	-3.24	28.7	88.3	89.5
[12]	-13	-9.37	5.25	58.7	91.9
[14]	-1.48	0.95	3.45	18.5	86.7

Conditions	drug sensitivity score
DERL-7 (IL-2 2.5 ng/mL) [26]	28.2
IMC-1 (IL-2 20 ng/mL) [19]	13.4
KAI3 (IL-2 2.5 ng/mL) [24]	25.2
KHYG-1 (IL-2 2.5 ng/mL) [17]	28.6
NK-92 (IL-2 2.5 ng/mL) [20]	19.7
NK-YS (IL-2 2.5 ng/mL) [25]	31.2
NKL (IL-2 2.5 ng/mL) [22]	29.5
SNK-6 (IL-2 2.5 ng/mL) [16]	34.5
YT (IL-2 2.5 ng/mL) [28]	30.5
[15]	7.76
[18]	12.1
[21]	22.1
[23]	20.4
[27]	12.3
